Series [1] deals with Herpes simplex virus (HSV). Nature of the series: HSV virus yield (infectious virus particle production). Particulars: for HSV yield: solvent as listed per compound, Torasemide at 90 μg/ml. It is filed as cell-based.
Series [2] has as its system Herpes simplex virus (HSV). The experiment in a line: HSV standard plaque inhibition assay. Type of series: cell-based. Particulars: for ICVT activity: HSV plaque inhibition assay; for IC50: Herpes simplex virus. From the text: Using Herpes simplex virus (HSV), 50% plaque inhibitory dose (1D50) were established using the standard plaque inhibition assay.
Another series relates to Adenovirus. Nature of the series: 50% plaque inhibitory concentration, Adenovirus. Particulars: unidentified adenovirus, A549, read-out: Furosemide IC50.
The conditions of series [3]: for Flux: Q24 divided by 24.

In brackets after ≈: the same amount, converted by molar mass. Where two headings read alike, the source gives them in different places.

Take `NS(=O)(=O)c1cc2c(cc1Cl)NCNS2(=O)=O` [Hydrochiorothiazide, Hydrochlorothiazide]: in series [1] (Solvent: NaOH 1% aqueous), the “HSV yield reduced to zero at” value is on record as “HSV yield reduced to zero at 600 ug/ml”. Also, in series [2], the “ICVT activity” value was “only ‘borderline’ CVI activity”.
With `C[C@@H]1O[C@@H](O[C@H]2C[C@@H](O)[C@]3(CO)[C@H]4[C@H](O)C[C@]5(C)[C@@H](C6=CC(=O)OC6)CC[C@]5(O)[C@@H]4CC[C@]3(O)C2)[C@H](O)[C@H](O)[C@H]1O` [Strophanthin G], the “HSV yield” value in series [1] is on record as “HSV yield reduced Borderline”.
For `CC(=O)Nc1nnc(S(N)(=O)=O)s1` [Acetazolamide], the “ICVT activity” value in series [2] was “only ‘borderline’ CVI activity”.
On to `Cc1cccc(Nc2ccncc2S(=O)(=O)NC(=O)NC(C)C)c1` [Torasemide], for which the “HSV yield” value in series [1] is “HSV yield unaffected at 90 μg/ml”.
Consider `CCCCNC(=O)NS(=O)(=O)c1ccc(C)cc1` [Tolbutamide], for which the “HSV yield reduced to zero” value in series [1] (Solvent: PEG) and in series [1] (Solvent: PG) was “HSV yield reduced to zero 300 μg/ml” each time. Besides, the “ICVT activity” value in series [2] is given as “only ‘borderline’ CVI activity”.
In the case of `CCCCNc1cc(C(=O)O)cc(S(N)(=O)=O)c1Oc1ccccc1` [Bumetanide], the “HSV yield” value in series [1] was “HSV yield reduced Borderline”.
In the case of `NS(=O)(=O)c1cc(C(=O)O)c(NCc2ccco2)cc1Cl` [Furosemide, 5-(Aminosulfonyl)-4-chloro-2-[(2-furanylmethyl)amino]benzoic acid], the IC50 amounted to 440 ± 114 µg/mL (≈ 1330 µM) in the series on Adenovirus; 800 µg/mL (≈ 2420 µM) in series [2] (BHK-21, read-out: Furosemide IC50, host cell BHK21); 1000 µg/mL (≈ 3020 µM) in series [2] (read-out: Furosemide IC50, host cell Vero). Further, the “maximum concentrations observed in the receptor phase” value in series [3] (40:40:20 gels) was found to be 543.60 µg/mL. In addition, the results for the Release date in series [3] (Ampule Formulation), in series [3] (HPC Formulation) and in series [3] (Ultrez Formulation) were 667 μg cm^−2 h^0.5, 2673 μg cm^−2 h^0.5 and 1027 μg cm^−2 h^0.5, respectively. For the same compound, the Q24 turned out to be 2724 μg cm^−2 in series [3] (Ampule Formulation (8% HPC)); 64.63 μg cm^−2 in series [3] (Gel 1:1, prototype 40:40:20 mix, pH 7, 24 h); 543.60 μg cm^−2 in series [3] (Gel 14:1 (F:D), prototype 40:40:20 mix, […] 981NF, pH 5, 24 h); 365.65 μg cm^−2 in series [3] (Gel 14:1, prototype 40:40:20 mix, pH 7, 24 h); 230.69 μg cm^−2 in series [3] (Gel 14:1, prototype 40:40:20 mix, pH 9, 24 h); 9085 μg cm^−2 in series [3] (HPC Formulation (revised 50:40:10 gel, 8% HPC, pH 5, 14:1)). Besides, in series [3] (Ultrez Formulation (revised 50:40:10 gel, […] Ultrez, pH 5, 14:1)), the Q24 was determined as 6128 μg cm^−2. The Flux is 111 μg cm^−2 h^−1 in series [3] (Ampule Formulation); 2.69 μg cm^−2 h^−1 in series [3] (Gel 1:1, pH 7); 22.65 μg cm^−2 h^−1 in series [3] (Gel 14:1, pH 5); 15.24 μg cm^−2 h^−1 in series [3] (Gel 14:1, pH 7); 9.61 μg cm^−2 h^−1 in series [3] (Gel 14:1, pH 9); 388 μg cm^−2 h^−1 in series [3] (HPC Formulation). The same compound had a Flux in series [3] (Ultrez Formulation) of 248 μg cm^−2 h^−1. Moreover, the “% applied dose” value in series [3] (Gel 1:1, pH 7) was determined as 17.9%; in series [3] (Gel 14:1, pH 5, assuming 2 g of gel in donor) it was 8.7%; in series [3] (Gel 14:1, pH 7) it was 5.9%; in series [3] (Gel 14:1, pH 9) it was 3.7%. Besides, the “Release Rate” value came to 7.18 μg cm^−2 h^0.5 in series [3] (Gel 1:1, pH 7); 124.51 μg cm^−2 h^0.5 in series [3] (Gel 14:1, pH 5, gradient of square root of time plot); 77.482 μg cm^−2 h^0.5 in series [3] (Gel 14:1, pH 7); 43.389 μg cm^−2 h^0.5 in series [3] (Gel 14:1, pH 9). Besides, the “reduction of release rate, 1:1 Gel versus 1:14 Gel” value in series [3] (pH 7) is recorded as 10.8 fold. The “Virus particles per cell” value with feline herpesvirus (each drug at its IC50, alone or both combined, No Drug 50) amounted to 0.25. In addition, the “production of infectious virus reduced by” value in the series with feline herpesvirus (each drug at its IC50, individually or in combination) turned out to be 99.5%. Besides, the “ICVT activity” value in series [2] is “potent ICVT activity”.
For the compound `C[C@H]1O[C@@H](O[C@H]2[C@@H](O)C[C@H](O[C@H]3[C@@H](O)C[C@H](O[C@H]4CC[C@@]5(C)[C@H](CC[C@@H]6[C@@H]5CC[C@]5(C)[C@@H](C7=CC(=O)OC7)CC[C@]65O)C4)O[C@@H]3C)O[C@@H]2C)C[C@H](O)[C@@H]1O` [Digitoxin], the “HSV yield” value in series [1] was “HSV yield reduced”. Also, the ID50 in series [2] (Digoxin, Digitoxin from powder 250 μg per ml in 70% ethanol, IV Lanoxin in 10% ethanol, virus not named at this place) worked out at 30 ng per ml. In addition, the “ICVT activity” value in series [2] is “potent ICVT activity”. In addition, the “comparative ‘ICVT-ivities’” value in series [2] (saturated solutions in 90% ethanol compared with Lanoxin, virus not named at this place) is on record as “more effective than Digoxin”.

Broadly, the IC50 is the concentration that inhibits the measured activity by half.
